Measurements: ChEMBL document CHEMBL1201862, “PubChem BioAssay data set” (2004)
Activity calls are given as the source filed them.

Tests used:
[1] = A cytotoxicity screen of small molecule inhibitors of the PhoP region in Salmonella typhi identified in the primary screen. [Related pubchem assays: 1850, 1864, 1985 ]; type: functional
[2] = inhibitors of intracellular T. cruzi replication, confirmation, NIH3T3 host cells, beta-gal luminescence (AID 2044); type: functional, cell-based;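 note: intracellular parasites grown in NIH/3T3 mouse fibroblasts as host cells; luminescent beta-galactosidase reporter signal from transgenic T. cruzi replicating inside host cells; inhibitors lower the luminescence signal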
[3] = cytotoxicity toward NIH3T3 fibroblasts, dose response, counter-screen, cell-based, ATP luminescence, mouse fibroblasts (AID 2010); type: functional;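 note: cells exposed to compound for about 90 hours before reading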
Protein RecA = biological target: T1, Protein RecA (Mycobacterium tuberculosis, UniProt P9WHJ3); assay: Fluorescence Cell-Free Homogeneous Dose Retest to Identify Inhibitors of RecA-Intein Splicing Activity. [Related pubchem assays (depositor defined):AID2097, AID2223, AID489010, AID492950]; type: functional
T1 sequence (P9WHJ3 whole entry): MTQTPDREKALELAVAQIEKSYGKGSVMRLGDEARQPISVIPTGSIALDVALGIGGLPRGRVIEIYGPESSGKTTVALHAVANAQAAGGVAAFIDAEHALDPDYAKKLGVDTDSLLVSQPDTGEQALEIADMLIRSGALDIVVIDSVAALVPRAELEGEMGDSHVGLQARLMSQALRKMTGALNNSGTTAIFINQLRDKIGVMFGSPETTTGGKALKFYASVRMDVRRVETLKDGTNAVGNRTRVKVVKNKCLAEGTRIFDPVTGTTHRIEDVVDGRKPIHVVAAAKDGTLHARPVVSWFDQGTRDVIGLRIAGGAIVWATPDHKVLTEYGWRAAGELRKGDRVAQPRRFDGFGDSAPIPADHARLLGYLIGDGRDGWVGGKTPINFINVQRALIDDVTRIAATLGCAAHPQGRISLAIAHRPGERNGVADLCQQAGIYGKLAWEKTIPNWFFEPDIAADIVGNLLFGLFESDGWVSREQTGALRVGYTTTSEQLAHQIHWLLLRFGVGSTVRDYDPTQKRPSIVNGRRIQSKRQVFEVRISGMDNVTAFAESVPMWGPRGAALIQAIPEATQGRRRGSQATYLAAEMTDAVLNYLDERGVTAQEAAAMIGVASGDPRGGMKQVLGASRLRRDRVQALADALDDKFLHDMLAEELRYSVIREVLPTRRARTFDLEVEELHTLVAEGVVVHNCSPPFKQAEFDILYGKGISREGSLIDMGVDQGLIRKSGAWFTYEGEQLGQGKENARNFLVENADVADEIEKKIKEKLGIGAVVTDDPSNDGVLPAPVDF

[4] = biological target: T2, Replicative DNA helicase DnaB (Mycobacterium tuberculosis, UniProt P9WMR3); assay: DnaB intein splicing inhibitors, dose response, biochemical, cell-free fluorescence (AID 449749); type: functional
T2 sequence (P9WMR3 whole entry): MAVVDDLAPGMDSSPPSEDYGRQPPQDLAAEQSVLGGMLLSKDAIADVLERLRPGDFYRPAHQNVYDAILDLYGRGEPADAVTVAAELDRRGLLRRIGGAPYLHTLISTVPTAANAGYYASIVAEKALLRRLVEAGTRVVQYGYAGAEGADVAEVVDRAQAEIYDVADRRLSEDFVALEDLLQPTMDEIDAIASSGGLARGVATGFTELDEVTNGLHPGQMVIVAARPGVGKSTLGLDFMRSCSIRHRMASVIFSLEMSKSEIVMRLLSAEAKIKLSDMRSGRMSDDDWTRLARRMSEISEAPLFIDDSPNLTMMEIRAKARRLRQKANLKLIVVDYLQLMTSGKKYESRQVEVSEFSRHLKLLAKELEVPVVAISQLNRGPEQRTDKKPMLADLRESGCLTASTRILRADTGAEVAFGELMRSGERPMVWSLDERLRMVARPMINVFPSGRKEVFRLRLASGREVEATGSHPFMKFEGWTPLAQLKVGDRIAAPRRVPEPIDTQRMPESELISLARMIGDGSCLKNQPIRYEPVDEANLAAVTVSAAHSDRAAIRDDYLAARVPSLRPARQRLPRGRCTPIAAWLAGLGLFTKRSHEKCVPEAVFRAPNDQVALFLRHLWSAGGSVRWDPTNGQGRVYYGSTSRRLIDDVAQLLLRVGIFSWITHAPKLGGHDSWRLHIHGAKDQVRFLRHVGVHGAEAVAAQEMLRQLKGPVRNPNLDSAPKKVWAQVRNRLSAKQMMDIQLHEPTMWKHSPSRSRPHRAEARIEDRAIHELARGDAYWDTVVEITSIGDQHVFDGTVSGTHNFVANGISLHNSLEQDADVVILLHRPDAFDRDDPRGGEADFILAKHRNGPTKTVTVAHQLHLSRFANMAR

[5] = biological target: G-protein coupled receptor 55 (Homo sapiens, UniProt Q9Y2T6); assay: GPR55 agonists via beta-arrestin recruitment, primary screen, imaging, U2OS cells, beta-arrestin-GFP redistribution (AID 1961); type: functional
Sequence of G-protein coupled receptor 55 (Q9Y2T6 whole entry): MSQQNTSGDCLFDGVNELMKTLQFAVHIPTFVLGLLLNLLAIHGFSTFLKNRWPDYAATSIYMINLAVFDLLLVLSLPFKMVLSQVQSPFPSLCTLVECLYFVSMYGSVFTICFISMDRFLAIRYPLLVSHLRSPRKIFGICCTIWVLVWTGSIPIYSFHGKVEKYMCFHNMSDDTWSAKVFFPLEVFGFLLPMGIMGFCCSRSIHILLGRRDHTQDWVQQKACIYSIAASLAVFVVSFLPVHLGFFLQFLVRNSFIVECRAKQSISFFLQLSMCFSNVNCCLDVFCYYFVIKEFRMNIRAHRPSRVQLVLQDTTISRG

[6] = biological target: Glyceraldehyde-3-phosphate dehydrogenase (Homo sapiens, UniProt P04406)
Sequence of Glyceraldehyde-3-phosphate dehydrogenase (P04406 whole entry): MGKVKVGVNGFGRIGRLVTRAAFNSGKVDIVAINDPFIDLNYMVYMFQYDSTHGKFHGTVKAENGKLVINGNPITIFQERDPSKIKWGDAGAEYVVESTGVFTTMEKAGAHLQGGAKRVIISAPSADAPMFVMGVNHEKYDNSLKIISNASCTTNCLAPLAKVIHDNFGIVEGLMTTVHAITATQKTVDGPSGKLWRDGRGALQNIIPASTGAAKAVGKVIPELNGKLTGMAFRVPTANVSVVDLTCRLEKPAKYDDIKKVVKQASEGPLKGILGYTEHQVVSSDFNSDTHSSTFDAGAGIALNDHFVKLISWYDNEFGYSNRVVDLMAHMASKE

[7] = biological target: T3, Tyrosine-protein phosphatase non-receptor type 7 (Homo sapiens, UniProt P35236); type: functional
T3 sequence (P35236 whole entry): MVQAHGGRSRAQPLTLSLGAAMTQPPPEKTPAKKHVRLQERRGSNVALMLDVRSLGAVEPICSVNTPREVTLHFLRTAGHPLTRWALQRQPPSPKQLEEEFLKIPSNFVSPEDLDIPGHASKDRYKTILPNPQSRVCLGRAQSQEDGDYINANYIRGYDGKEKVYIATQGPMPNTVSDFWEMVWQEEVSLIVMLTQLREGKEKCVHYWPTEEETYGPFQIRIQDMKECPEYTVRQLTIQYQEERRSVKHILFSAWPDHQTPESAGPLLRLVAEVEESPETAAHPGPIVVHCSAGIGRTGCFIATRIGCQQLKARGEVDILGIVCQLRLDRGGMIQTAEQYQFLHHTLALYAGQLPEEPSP

[8] = biological target: T4, Dual specificity protein phosphatase 6 (Rattus norvegicus, UniProt Q64346)
T4 sequence (Q64346 whole entry): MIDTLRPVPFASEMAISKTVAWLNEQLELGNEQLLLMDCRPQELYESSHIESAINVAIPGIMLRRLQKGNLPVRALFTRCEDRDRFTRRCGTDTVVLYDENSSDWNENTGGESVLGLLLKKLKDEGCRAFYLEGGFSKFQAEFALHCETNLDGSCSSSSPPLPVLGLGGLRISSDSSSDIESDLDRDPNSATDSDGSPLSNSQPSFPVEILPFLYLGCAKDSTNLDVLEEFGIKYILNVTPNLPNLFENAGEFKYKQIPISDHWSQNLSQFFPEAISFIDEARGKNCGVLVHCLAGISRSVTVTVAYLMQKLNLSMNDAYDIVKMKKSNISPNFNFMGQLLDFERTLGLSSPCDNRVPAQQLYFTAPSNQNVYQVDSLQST

[9] = biological target: T4, Dual specificity protein phosphatase 6; type: functional
Saccharomyces cerevisiae = assay: NALP1 inhibitor project selectivity study, Caspase-1/ASC signal blockade IC50 in S. cerevisiae (AID 488863); type: functional, organism-based
[10] = biological target: T5, NACHT, LRR and PYD domains-containing protein 1 (Homo sapiens, UniProt Q9C000); assay: NALP1 inhibitors in yeast, dose response, luminescent (AID 488860); type: functional
T5 sequence (Q9C000 whole entry): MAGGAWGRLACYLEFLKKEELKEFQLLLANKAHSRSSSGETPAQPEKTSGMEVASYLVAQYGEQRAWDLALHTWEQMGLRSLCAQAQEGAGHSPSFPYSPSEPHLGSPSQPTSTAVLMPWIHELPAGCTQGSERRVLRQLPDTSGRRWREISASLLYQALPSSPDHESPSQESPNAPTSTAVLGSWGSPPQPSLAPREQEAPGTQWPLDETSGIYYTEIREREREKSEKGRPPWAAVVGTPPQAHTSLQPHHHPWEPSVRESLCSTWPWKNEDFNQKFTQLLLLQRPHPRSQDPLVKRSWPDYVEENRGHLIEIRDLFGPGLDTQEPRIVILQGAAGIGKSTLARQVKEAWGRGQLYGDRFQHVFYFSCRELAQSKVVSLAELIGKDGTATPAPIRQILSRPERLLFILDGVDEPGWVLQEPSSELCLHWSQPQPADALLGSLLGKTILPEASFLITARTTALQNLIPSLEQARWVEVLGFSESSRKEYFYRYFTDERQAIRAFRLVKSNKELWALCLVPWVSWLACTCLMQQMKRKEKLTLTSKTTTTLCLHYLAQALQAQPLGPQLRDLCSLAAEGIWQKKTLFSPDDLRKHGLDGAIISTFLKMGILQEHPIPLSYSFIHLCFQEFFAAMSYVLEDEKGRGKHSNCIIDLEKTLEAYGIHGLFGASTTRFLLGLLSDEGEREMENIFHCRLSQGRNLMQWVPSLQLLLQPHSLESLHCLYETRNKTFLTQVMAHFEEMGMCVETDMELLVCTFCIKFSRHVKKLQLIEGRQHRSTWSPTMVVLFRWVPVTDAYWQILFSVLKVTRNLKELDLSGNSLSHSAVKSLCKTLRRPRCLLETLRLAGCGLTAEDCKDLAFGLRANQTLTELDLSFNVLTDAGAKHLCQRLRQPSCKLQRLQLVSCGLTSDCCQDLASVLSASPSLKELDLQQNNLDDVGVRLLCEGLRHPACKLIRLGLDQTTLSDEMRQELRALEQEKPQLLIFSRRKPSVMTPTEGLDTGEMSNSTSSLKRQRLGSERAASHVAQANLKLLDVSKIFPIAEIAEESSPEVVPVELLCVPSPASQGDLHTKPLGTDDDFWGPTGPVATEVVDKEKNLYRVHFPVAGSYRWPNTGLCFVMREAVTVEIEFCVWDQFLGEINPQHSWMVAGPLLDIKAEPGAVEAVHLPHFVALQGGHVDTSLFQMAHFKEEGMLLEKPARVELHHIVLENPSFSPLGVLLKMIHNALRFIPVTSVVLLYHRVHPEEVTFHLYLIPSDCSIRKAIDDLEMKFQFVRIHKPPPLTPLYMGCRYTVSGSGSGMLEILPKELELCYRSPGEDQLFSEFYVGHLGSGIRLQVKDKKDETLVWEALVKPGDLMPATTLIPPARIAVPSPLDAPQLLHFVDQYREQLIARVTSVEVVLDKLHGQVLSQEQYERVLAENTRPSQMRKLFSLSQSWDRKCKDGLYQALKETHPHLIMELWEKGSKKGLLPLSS

X-box-binding protein 1 = biological target: T6, X-box-binding protein 1 (Homo sapiens, UniProt P17861); type: functional, Cricetulus griseus;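 note: confirmatory dose-response counter-screen serving a CHOP assay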
T6 sequence (P17861 whole entry): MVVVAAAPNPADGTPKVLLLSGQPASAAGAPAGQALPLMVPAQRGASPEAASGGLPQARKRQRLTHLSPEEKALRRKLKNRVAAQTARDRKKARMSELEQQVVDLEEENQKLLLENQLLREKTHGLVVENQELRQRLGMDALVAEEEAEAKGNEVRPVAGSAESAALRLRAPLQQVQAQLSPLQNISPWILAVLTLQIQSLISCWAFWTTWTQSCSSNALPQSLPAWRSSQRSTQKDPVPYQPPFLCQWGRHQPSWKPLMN

Streptococcus = assay: Group A Streptococcus viability loss, dose response, counter-screen for streptokinase expression inhibitor project, luminescence, BacTiterGlo (AID 1915); type: functional, organism-based;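 note: potency for reduction of bacterial viability or growth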
[11] = system: Streptococcus sp. 'group A'; assay: growth inhibition of control SK(-) GAS strain, dose response, counter-screen for streptokinase expression inhibitor project, luminescence, kanamycin, BacTiterGlo, confirmation (AID 1900); type: functional, organism-based
Streptokinase A = biological target: T7, Streptokinase A (Streptococcus pyogenes serotype M1, UniProt P10520); assay: S. pyogenes streptokinase expression inhibitors, potency, dose response, plasminogen activation absorbance, OD405 (AID 1914); type: functional, Streptococcus pyogenes M1 GAS;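 note: secreted streptokinase activity via plasminogen activation per viability signal from cell pellet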
T7 sequence (P10520 whole entry): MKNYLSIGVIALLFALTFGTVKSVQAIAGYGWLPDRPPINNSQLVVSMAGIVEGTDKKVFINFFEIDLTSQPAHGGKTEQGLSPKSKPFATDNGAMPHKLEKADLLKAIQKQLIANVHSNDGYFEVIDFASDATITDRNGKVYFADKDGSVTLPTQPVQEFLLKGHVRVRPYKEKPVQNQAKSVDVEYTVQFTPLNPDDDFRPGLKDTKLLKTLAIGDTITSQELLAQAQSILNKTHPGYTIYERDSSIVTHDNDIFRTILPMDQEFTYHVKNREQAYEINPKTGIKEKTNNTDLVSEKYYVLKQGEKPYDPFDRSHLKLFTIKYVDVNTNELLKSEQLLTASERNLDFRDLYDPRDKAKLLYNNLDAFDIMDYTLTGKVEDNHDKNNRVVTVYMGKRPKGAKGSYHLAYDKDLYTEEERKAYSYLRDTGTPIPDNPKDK

Cc1ccc(/C=C2\SC(=S)N(c3cccnc3)C2=O)o1
EC50 [1]: > 50 µM (active) | EC50 [2]: 2.36 µM (active) | EC50 [3]: > 60 µM (not active)

Cc1cc(N=Nc2ccccc2)c(NCC(O)C(O)C(O)CO)cc1C (centres undefined)
EC50 [1]: > 50 µM (active)

COc1ccc(C=C(c2nc3ccccc3s2)c2nc3ccccc3s2)cc1O
EC50 (Protein RecA): 7.08 µM (active) | AC50 [4]: > 380 µM (inactive) | EC50 [5]: 3.05 µM (active)

Cc1cc(NC(=O)/C=C/c2cccs2)no1
IC50 [6]: 62.6 µM (active) | IC50 [7]: > 100 µM (not active) | IC50 [8]: > 100 µM (inactive) | IC50 [9]: > 100 µM (inactive)

CCOc1ccccc1N1CCN(C(=O)CCCc2nc3ccccc3s2)CC1
IC50 (Saccharomyces cerevisiae): > 100 µM (inactive) | IC50 [10]: 36.3 µM (active)

C=CCn1c(COc2ccccc2)nnc1SC(C)C(=O)N/N=C/c1cc(Cl)ccc1O (centres undefined)
Absolute IC50 (XBP1) (X-box-binding protein 1): 10 µM | EC50 (Streptococcus): 8.01 µM (active) | EC50 [11]: 2.77 µM (active) | EC50 (Streptokinase A): > 150 µM (not active)

O=C(CSc1nnc(-c2cccnc2)n1Cc1ccco1)c1ccc2ccccc2c1
EC50 [1]: > 50 µM (active)

O=C(c1ccc2c(c1)N(Cc1ccccc1F)C(=O)c1ccccc1S2(=O)=O)N1CCCC1
EC50 [5]: > 32 µM (inactive)
